According to US20050019341A1, “Tumor antigen” (priority 2001, published 2005):

Legend:
[1] = tested on: OK-CTL (HLA-A2-restricted cytotoxic T-lymphocyte strain); test: CTL activation test: T2 cells pulsed with peptide co-cultured with OK-CTL, IFN-γ by ELISA; assay type: cell-based, human; settings: E/T ratio=10, 18 hours, dose-dependent
Description: The T2 cells, pulsed with each peptide in this way, were used as the target cells (T). In addition, the OK-CTL obtained in Example 1 were used as effector cells (E). Target cells amounting to 1×10^4 and effector cells amounting to 1×10^5 were mixed (E/T ratio=10) and incubated for 18 hours. After incubation, 100 μl of supernatant was collected, and IFN-γ was measured by ELISA. The quantity of IFN-γ produced by CTL against T2 cells that were not pulsed with a peptide was taken as the background and subtracted from each measurement value.

[2] = tested on: PBMC of HLA-A2+ brain tumor patients; targets T2 cells pulsed with corresponding peptide and/or HLA-A2+ tumor cells; test: Induction of CTL by peptides from PBMC of brain tumor patients (Example 5): IFN-γ production; assay type: cell-based, human; settings: Patient Case 4 (brain tumor)
Description: (§1) The PBMC were prepared by methods of the art from the blood of three primary brain tumor patients and one metastatic brain tumor patient. The PBMC obtained were stimulated by incubation with each peptide in the same way as in Example 4, and were cultured by the same method as in Example 3 using T2 cells that were pulsed with each corresponding peptide or KNS60 tumor cells as target cells, followed by measuring the quantity of IFN-γ produced. When T2 cells that were pulsed with the peptides were used as target cells, the PBMC was paired with the T2 cells in such a way that the peptide used to stimulate PBMC and the peptide pulsed to T2 cells were the same.

[3] = tested on: PBMC of multiple sclerosis patients; T2 cells pulsed with corresponding peptide; test: Peptide recognition in PBMC of multiple sclerosis patients (Example 6): IFN-γ production against peptide-pulsed T2 cells; assay type: cell-based, human; settings: MS Patient Case 7
Description: as §1
(§2) Among the 13 types of peptide obtained in Example 3, three peptides, P101 (SEQ ID NO: 1), P102 (SEQ ID NO: 2), and P103 (SEQ ID NO: 3), which were derived from clone 8B6, as well as three peptides, P104 (SEQ ID NO: 4), P105 (SEQ ID NO: 5), and P106 (SEQ ID NO: 6), which were derived from clone 2G2, were examined for their ability to induce CTL from PBMC obtained from multiple sclerosis patients having HLA-A2 as the HLA type and healthy subjects, in the same manner as in Example 5.

HLA-A2+ tumor cells = test: Peptide-stimulated PBMC of multiple sclerosis patients: recognition of tumor cells (IFN-γ); assay type: cell-based, human; settings: PBMC from multiple sclerosis patients
Description: as §1, §2

immunoglobulin E (IgE) = test: ELISA for peptide-specific IgE in serum; assay type: binding, human; settings: serum of MS patients
Description: The presence of immunoglobulin E (IgE) and immunoglobulin G (IgG) that specifically recognize P102 (SEQ ID NO: 2), P103 (SEQ ID NO: 3), P104 (SEQ ID NO: 4), or P106 (SEQ ID NO: 6) in the serum of a multiple sclerosis patient, a brain tumor patient, and a healthy subject was measured by the enzyme-linked immunosorbent assay (ELISA).
Each aforementioned peptide (20 μg/well) was immobilized in a 96-well Nunc Covalink flat-bottomed plate (Fisher Scientific), using disuccinimidyl suberate (PIERCE), following the product instructions. This plate was blocked with Block Ace (Yukijirushi) and washed with 0.05% Tween20-PBS; a serum or blood plasma sample was diluted with 0.05% Tween20-Block Ace and added to the plate at 100 μl/well. After incubation for 2 hours at 37° C., the plate was washed with 0.05% Tween20-PBS and further incubated for 2 hours at 37° C. with rabbit anti-human IgE antibody (E chain-specific), anti-human IgG antibody (y chain-specific) (DAKO), or anti-human IgG subclass-specific antibody (Zymed Laboratories), each of which were diluted to 1:1000. […] Thereafter, the reaction was stopped by adding 1 M phosphoric acid, and the optical density (OD) at 450 nm was measured. In so doing, peptides derived from EBV, HIV, SART2 (JP-11-318455), or SART3 (Cancer Research, 1999, Volume 59, pp. […]) were used as controls and measured similarly. […]

“IMSRDLVPRI (Designed peptide recognized by HLA-A2-restricted cytotoxic T lymphocytes) [P102, peptide derived from clone 8B6]” was tested, and the “recognition by OK-CTL / production of IFN-γ from OK-CTL” value [1] was “enhanced production of IFN-γ from OK-CTL”, the “production of IFN-γ from PBMC” value [2] was “enhanced production of IFN-γ” and the “production of IFN-γ from PBMC” value [3] was “enhanced production of IFN-γ”. The “recognition of tumor cells by peptide-stimulated PBMC” value (HLA-A2+ tumor cells) was “did not recognize the tumor cells” and the “IgE that specifically recognizes the peptide” value (immunoglobulin E (IgE)) was “is present”.
